# Assay results: patent publication US20210060033A1, “ORALLY ADMINISTERED COMBINATIONS OF BETA-LACTAM ANTIBIOTICS AND AVIBACTAM DERIVATIVES FOR TREATING BACTERIAL INFECTIONS” (priority 2019, published 2021)
# Where two headings read alike, the source gives them in different places.
# Experiments:
# [1] = in vivo; cited from earlier work
# [2] = rat, in vivo, po; cited from earlier work
# [3] = test system: 314 Enterobacteriaceae; assay type: cell-based; conditions: for MIC90 with addition of avibactam: all isolates combined, avibactam at a fixed concentration of 4 μg/mL; for Estimated MIC90: Enterobacteria n = 314 (all isolates combined), avibactam or clavulanic acid fixed at 4 μg/mL in combinations
# [4] = test system: ESBL-positive isolates (n = 28); assay type: cell-based, Enterobacteriaceae; conditions: ESBL n = 28; avibactam or clavulanic acid fixed at 4 μg/mL in combinations
# [5] = test system: OXA-positive isolates (n = 22); assay type: cell-based, Enterobacteriaceae; conditions: for Estimated MIC90: OXA n = 22, avibactam or clavulanic acid fixed at 4 μg/mL in combinations; for MIC90 with addition of avibactam: OXA-positive isolates, avibactam 4 μg/mL
# [6] = test system: KPC-positive isolates (n = 23); assay type: cell-based, Enterobacteriaceae; conditions: for Estimated MIC90: KPC n = 23, avibactam or clavulanic acid fixed at 4 μg/mL in combinations; for MIC90 with addition of avibactam: KPC-positive isolates, avibactam 4 μg/mL
# [7] = test system: pAmpC (PlasAmpC) isolates (n = 20); assay type: cell-based, Enterobacteriaceae; conditions: pAmpC n = 20; avibactam or clavulanic acid fixed at 4 μg/mL in combinations
# [8] = Oral administration of avibactam derivative (3) to healthy human volunteers (Example 2), plasma avibactam; assay type: in vivo; conditions: for AUC0-INF: unit not given
# Experimental: The pharmacokinetics of avibactam provided as an orally administered avibactam derivative was determined on healthy human volunteers.
# […] The plasma concentration of avibactam was measured. The free avibactam concentration was adjusted for from 5% to 8% protein binding (AUCfree=AUC0-inf×[…]).
# [9] = Single ascending oral dose phase 1 study of avibactam derivative (3) (Example 3), avibactam PK; assay type: in vivo, human; conditions: avibactam in plasma, fed
# Experimental: The pharmacokinetics of avibactam provided as an orally administered avibactam derivative was determined on healthy human volunteers. A randomized, double-blind, placebo-controlled single ascending dose phase 1 study was undertaken with healthy male and female adults. […] Plasma and urine PK samples were collected prior to dosing and at frequent intervals after dosing. […] FIG. 12 also provides an overall estimate of F for the study population (n=24) presented as a conventional box-whisker graphic (median, interquartile range [25-75%] and Tukey whiskers).
# [10] = dog, in vivo; cited from earlier work
# [11] = cynomolgus monkey, in vivo; cited from earlier work
# [12] = avibactam, oral 300 mg of avibactam derivative (3), healthy
compound,measurement,setting,value
"CC(C)OC(=O)C(C)(C)COS(=O)(=O)ON1C(=O)N2C[C@H]1CC[C@H]2C(N)=O [avibactam derivative (11), isopropyl 3-(((((1R,2S,5R)-2-carbamoyl-7-oxo-1,6-diazabicyclo[3.2.1]octan-6-yl)oxy)sulfonyl)oxy)-2,2-dimethylpropanoate]",oral bioavailability (% F),[1],greater than 10 % F
"CC(C)(C)OC(=O)C(C)(C)COS(=O)(=O)ON1C(=O)N2C[C@H]1CC[C@H]2C(N)=O [avibactam derivative (14), tert-butyl 3-(((((1R,2S,5R)-2-carbamoyl-7-oxo-1,6-diazabicyclo[3.2.1]octan-6-yl)oxy)sulfonyl)oxy)-2,2-dimethylpropanoate]",oral bioavailability (% F),[1],greater than 10 % F
"CCCCCCOC(=O)C(C)(C)COS(=O)(=O)ON1C(=O)N2C[C@H]1CC[C@H]2C(N)=O [avibactam derivative (12), hexyl 3-(((((1R,2S,5R)-2-carbamoyl-7-oxo-1,6-diazabicyclo[3.2.1]octan-6-yl)oxy)sulfonyl)oxy)-2,2-dimethylpropanoate]",oral bioavailability (% F),[1],greater than 10 % F
"COC(=O)C(C)(C)COS(=O)(=O)ON1C(=O)N2C[C@H]1CC[C@H]2C(N)=O [avibactam derivative (10), methyl 3-(((((1R,2S,5R)-2-carbamoyl-7-oxo-1,6-diazabicyclo[3.2.1]octan-6-yl)oxy)sulfonyl)oxy)-2,2-dimethylpropanoate]",oral bioavailability (% F),[1],greater than 10 % F
"CCCCCCCOC(=O)CCC(C)(C)COS(=O)(=O)ON1C(=O)N2C[C@H]1CC[C@H]2C(N)=O [avibactam derivative (37), heptyl 5-(((((1R,2S,5R)-2-carbamoyl-7-oxo-1,6-diazabicyclo[3.2.1]octan-6-yl)oxy)sulfonyl)oxy)-4,4-dimethylpentanoate]",avibactam oral bioavailability (% F),[2],greater than 10 % F
C=CC1=C(C(=O)O)N2C(=O)[C@@H](NC(=O)/C(=N\OCC(=O)O)c3csc(N)n3)[C@H]2SC1 [cefixime],MIC90 with addition of avibactam,[3],1 µg/mL
C[C@@H](O)[C@H]1C(=O)N2C(C(=O)O)=C(S[C@H]3CC[S@@+]([O-])C3)S[C@H]12 [sulopenem],Estimated MIC90,[4],0.12 µg/mL
same,Estimated MIC90,[5],>32 µg/mL
same,MIC90 with addition of avibactam,[5],1 µg/mL
same,Estimated MIC90,[6],>32 µg/mL
same,MIC90 with addition of avibactam,[6],1 µg/mL
same,Estimated MIC90,[7],0.5 µg/mL
same,Estimated MIC90,[3],8 µg/mL
same,MIC90 with addition of avibactam,[3],0.25 µg/mL
"ethyl 3-(((((1R,2S,5R)-2-carbamoyl-7-oxo-1,6-diazabicyclo[3.2.1]octan-6-yl)oxy)sulfonyl)oxy)-2,2-dimethylpropanoate [avibactam derivative (3)]",AUC0-INF,"[8]; First Quartile, avibactam",5.9
same,AUC0-INF,"[8]; Max, avibactam",10.9
same,AUC0-INF,"[8]; Mean, avibactam",7.6
same,AUC0-INF,"[8]; Min, avibactam",3.1
same,AUC0-INF,"[8]; ThirdQuartile, avibactam",10.1
same,AUCinf,[8]; [12],"about 7,600 ng×h/mL"
same,T1/2,[8]; [12],about 1.5 hours
same,T1/2,"[8]; oral 600 mg of avibactam derivative (3), healthy",about 1.5 hours
same,dose of IV avibactam approximated by the oral dose,[8]; orally administered dose not given,~400 mg
same,dose of IV avibactam approximated by the oral dose,[8]; orally administered dose of 300 mg,~62.5 mg
same,Thalf,[9]; single oral dose 300 mg,1.51 (0.24) h
same,Thalf,[9]; single oral dose 900 mg,2.65 (0.46) h
same,Thalf,"[9]; single oral dose 1,350 mg",2.33 (0.18) h
same,oral bioavailability (% F),[1],greater than 10 % F
same,avibactam oral bioavailability,[10],greater than 50 % F
same,avibactam oral bioavailability,[11],greater than 50 % F
C[C@@H](O)[C@H]1C(=O)N2C(C(=O)O)=C(SC3CN(C4=NCCS4)C3)[C@H](C)[C@H]12 [tebipenem],Estimated MIC90,[4],0.12 µg/mL
same,Estimated MIC90,[5],>32 µg/mL
same,MIC90 with addition of avibactam,[5],1 µg/mL
same,Estimated MIC90,[6],>32 µg/mL
same,MIC90 with addition of avibactam,[6],1 µg/mL
same,Estimated MIC90,[7],0.25 µg/mL
same,Estimated MIC90,[3],2 µg/mL
same,MIC90 with addition of avibactam,[3],0.25 µg/mL
"CCCCCCCOC(=O)C(C)(C)COS(=O)(=O)ON1C(=O)N2C[C@H]1CC[C@H]2C(N)=O [avibactam derivative (13), heptyl 3-(((((1R,2S,5R)-2-carbamoyl-7-oxo-1,6-diazabicyclo[3.2.1]octan-6-yl)oxy)sulfonyl)oxy)-2,2-dimethylpropanoate]",oral bioavailability (% F),[1],greater than 10 % F
same,avibactam oral bioavailability,[10],greater than 50 % F
same,avibactam oral bioavailability,[11],greater than 50 % F
"CCCOC(=O)C(C)(C)COS(=O)(=O)ON1C(=O)N2C[C@H]1CC[C@H]2C(N)=O [avibactam derivative (57), propyl 3-(((((1R,2S,5R)-2-carbamoyl-7-oxo-1,6-diazabicyclo[3.2.1]octan-6-yl)oxy)sulfonyl)oxy)-2,2-dimethylpropanoate]",avibactam oral bioavailability (% F),[2],greater than 10 % F
"CCCCOC(=O)C(C)(C)COS(=O)(=O)ON1C(=O)N2C[C@H]1CC[C@H]2C(N)=O [avibactam derivative (58), butyl 3-(((((1R,2S,5R)-2-carbamoyl-7-oxo-1,6-diazabicyclo[3.2.1]octan-6-yl)oxy)sulfonyl)oxy)-2,2-dimethylpropanoate]",avibactam oral bioavailability (% F),[2],greater than 10 % F
"CCCCCCOC(=O)CCC(C)(C)COS(=O)(=O)ON1C(=O)N2C[C@H]1CC[C@H]2C(N)=O [avibactam derivative (36), hexyl 5-(((((1R,2S,5R)-2-carbamoyl-7-oxo-1,6-diazabicyclo[3.2.1]octan-6-yl)oxy)sulfonyl)oxy)-4,4-dimethylpentanoate]",avibactam oral bioavailability (% F),[2],greater than 10 % F
"CC(C)(COS(=O)(=O)ON1C(=O)N2C[C@H]1CC[C@H]2C(N)=O)C(=O)OCc1ccccc1 [avibactam derivative (4), benzyl 3-(((((1R,2S,5R)-2-carbamoyl-7-oxo-1,6-diazabicyclo[3.2.1]octan-6-yl)oxy)sulfonyl)oxy)-2,2-dimethylpropanoate]",oral bioavailability (% F),[1],greater than 10 % F
C[C@H]1[C@H](NC(=O)/C(=N\OC(C)(C)C(=O)O)c2csc(N)n2)C(=O)N1S(=O)(=O)O [aztreonam],MIC90 with addition of avibactam,[3],0.5 µg/mL
COCC1=C(C(=O)O)N2C(=O)[C@@H](NC(=O)/C(=N\OC)c3csc(N)n3)[C@H]2SC1 [cefpodoxime],Estimated MIC90,[4],>32 µg/mL
same,Estimated MIC90,[5],>32 µg/mL
same,Estimated MIC90,[6],>32 µg/mL
same,Estimated MIC90,[7],>32 µg/mL
same,Estimated MIC90,[3],>32 µg/mL
same,MIC90 with addition of avibactam,[3],4 µg/mL
